Reference: ChEMBL document CHEMBL2396627, “Novel artemisinin derivatives with potential usefulness against liver/colon cancer and viral hepatitis” (Bioorg Med Chem, 2013)
The source made the active and inactive calls. No cut-off for these calls is given here.

Tests used:
[1] = system: Bovine viral diarrhea virus strain Oregon C24V; assay: Antiviral activity against Bovine viral diarrhea virus Oregon C24V genotype 1 […] assessed as reduction in viral RNA release at 50 uM by RT-PCR analysis; format: functional
SK-HEP1 [2] = assay: Cytotoxicity against human SKHEP1 cells after 72 hrs by formazan test; format: functional, cell-based; conditions: for IC50: SK-HEP1, 72 h
[3] = Acute toxicity in bovine EBTr cells at 50 uM after 72 hrs; format: cell-based, Bos taurus; conditions: cattle
[4] = Acute toxicity in bovine EBTr cells infected with BVDV assessed as reduction in cell viability at 50 uM after 72 hrs; format: cell-based, Bos taurus; conditions: cattle
[5] = Acute toxicity in human LS 174T cells at IC50 after 6 hrs by formazan test; format: cell-based; conditions: ls174t
EBTr [6] = assay: Antiviral activity against Bovine viral diarrhea virus Oregon C24V genotype 1 […] infected in bovine EBTr cells assesed as inhibition of virus-induced cytopathic effect at 50 uM after 72 hrs by MTT assay; format: functional, cell-based; conditions: Bovine viral diarrhea virus strain Oregon C24V
Hepatitis B virus = assay: Antiviral activity against Hepatitis B virus infected in human HepG2(2.2.15) cells assessed as reduction in HBV-DNA release at < 0.1 uM measured on day 21; format: functional; set-up: scale not given: the % may be the effect or the level left
[7] = Cytotoxicity against bovine EBTr cells at 20 to 100 uM after 72 hrs by MTT assay; format: cell-based, Bos taurus; conditions: cattle
HepG2 [8] = assay: Cytotoxicity against human HepG2 cells after 72 hrs by formazan test; format: functional, cell-based; conditions: for IC50: HepG2, 72 h
EBTr [9] = assay: Antiviral activity against Bovine viral diarrhea virus Oregon C24V genotype 1 […] infected in bovine EBTr cells assesed as inhibition of virus-induced cytopathic effect at 20 to 100 uM after 72 hrs by MTT assay; format: functional, cell-based; conditions: Bovine viral diarrhea virus strain Oregon C24V
HepG2 [10] = assay: Acute toxicity in human HepG2 cells at IC50 after 6 hrs by formazan test; format: cell-based; conditions: hepg2, 6 h
SK-HEP1 [11] = assay: Acute toxicity in human SKHEP1 cells at IC50 after 6 hrs by formazan test; format: cell-based; conditions: sk-hep1, 6 h
[12] = (§1) Cytotoxicity against human LS 174T cells after 72 hrs by formazan test; format: functional, cell-based; conditions: LS174T
[13] = Cytotoxicity against human HepG2(2.2.15) cells assessed as reduction in cell viability at 0.1 to 1 uM measured on day 21 by natural Red test; format: cell-based; conditions: hepg2 2.2.15, 1 µM
[14] = Cytotoxicity against bovine EBTr cells up to 100 uM after 72 hrs by MTT assay; format: cell-based, Bos taurus; conditions: cattle
[15] = Cytotoxicity against human HepG2(2.2.15) cells assessed as reduction in cell viability at 0.1 uM measured on day 21 by natural Red test; format: cell-based; conditions: hepg2 2.2.15, 0.1 µM
SK-HEP1 [16] = assay: Cytotoxicity against human SKHEP1 cells after 72 hrs in presence of ferrosanol; format: functional, cell-based
SK-HEP1 [17] = assay: Cytotoxicity against human SKHEP1 cells after 72 hrs in presence of hemin; format: functional, cell-based
LS174T = assay: as §1; format: functional, cell-based
SK-HEP1 [18] = assay: Cytotoxicity against human SKHEP1 cells incubated for 1 hr prior to hemin addition measured after 72 hrs; format: functional, cell-based
SK-HEP1 [19] = assay: Cytotoxicity against human SKHEP1 cells incubated for 1 hr prior to ferrosanol addition measured after 72 hrs; format: functional, cell-based
[20] = Cytotoxicity against human HepG2(2.2.15) cells assessed as reduction in cell viability at 1 uM measured on day 21 by natural Red test; format: cell-based; conditions: hepg2 2.2.15, 1 µM
EBTr [21] = assay: Antiviral activity against Bovine viral diarrhea virus Oregon C24V genotype 1 […] infected in bovine EBTr cells assessed as inhibition of virus-induced cytopathic effect at 50 uM incubated 1 hr prior to ferrosanol addition measured after 72 hrs; format: functional, cell-based; conditions: Bovine viral diarrhea virus strain Oregon C24V
EBTr [22] = assay: Antiviral activity against Bovine viral diarrhea virus Oregon C24V genotype 1 […] infected in bovine EBTr cells assessed as inhibition of virus-induced cytopathic effect at 50 uM incubated 1 hr prior to hemin addition measured after 72 hrs; format: functional, cell-based; conditions: Bovine viral diarrhea virus strain Oregon C24V

Row | SMILES | Activity [1] | IC50 (SK-HEP1 [2]) [µM] | Activity [3] | Activity [4] | Activity [5] | Activity (EBTr [6]) | Activity [7] | IC50 (HepG2 [8]) [µM] | Activity (EBTr [9]) | Activity (HepG2 [10]) | Activity (SK-HEP1 [11]) | IC50 [12] [µM] | Activity [14] | Activity [20] | further results
1 | CCC(C)O[C@H]1O[C@@H]2O[C@@]3(C)CC[C@H]4[C@H](C)CC[C@@H]([C@H]1C)[C@@]24OO3 (some centres not stated) | Active | 10 | Non-toxic | Toxic | Non-toxic | inactive | Toxic | 50 | Active | Non-toxic | Non-toxic | 70 | – | – | Activity (Hepatitis B virus): 50%; Activity [13]: Toxic
2 | CC(=O)O[C@H]1O[C@@H]2O[C@@]3(C)CC[C@H]4[C@H](C)CC[C@@H]([C@H]1C)[C@@]24OO3 | Active | 4 | Non-toxic | Non-toxic | Non-toxic | Active | – | 60 | Dose-dependent effect | Non-toxic | Non-toxic | 70 | Non-toxic | – | Activity [15]: Toxic
3 | C[C@H]1[C@H](OC(=O)CCC(=O)O)O[C@@H]2O[C@@]3(C)CC[C@H]4[C@H](C)CC[C@@H]1[C@@]24OO3 [ARTESUNATE] | – | 10 | – | – | Toxic | – | – | 20 | – | Toxic | Toxic | 10 | – | – | Activity (SK-HEP1 [2]): Dose-dependent effect; Activity (SK-HEP1 [16]): Active; Activity (SK-HEP1 [17]): Active; Activity (HepG2 [8]): Dose-dependent effect; Activity (LS174T): Dose-dependent effect; Activity (SK-HEP1 [18]): Active; Activity (SK-HEP1 [19]): Active
4 | C[C@H]1[C@@H](OC(=O)N(C)C)O[C@@H]2O[C@@]3(C)CC[C@H]4[C@H](C)CC[C@@H]1[C@@]24OO3 | inactive | 25 | Non-toxic | Non-toxic | – | Active | – | 70 | Dose-dependent effect | – | – | 100 | Non-toxic | – | Activity [15]: Toxic
5 | C[C@@H]1CC[C@H]2[C@@H](C)C(=O)O[C@@H]3O[C@@]4(C)CC[C@@H]1[C@]32OO4 [ARTEMISININ] | – | > 200 | – | – | – | – | – | > 200 | – | – | – | > 200 | – | – | –
6 | C[C@H]1[C@@H](O)O[C@@H]2O[C@@]3(C)CC[C@H]4[C@H](C)CC[C@@H]1[C@@]24OO3 [ARTENIMOL] | Active | 30 | Non-toxic | Toxic | – | Active | Toxic | 70 | Active | – | – | 120 | – | Toxic | Activity (SK-HEP1 [2]): Dose-dependent effect; Activity (HepG2 [8]): Dose-dependent effect; Activity (LS174T): Dose-dependent effect
7 | C[C@H]1[C@@H](OC(=O)C(F)(F)C(F)(F)F)O[C@@H]2O[C@@]3(C)CC[C@H]4[C@H](C)CC[C@@H]1[C@@]24OO3 | inactive | 150 | Non-toxic | Non-toxic | – | Active | – | 200 | Dose-dependent effect | – | – | > 200 | Non-toxic | – | Activity [15]: Toxic
8 | C[C@H]1[C@@H](OC(=O)C(C)(C)C)O[C@@H]2O[C@@]3(C)CC[C@H]4[C@H](C)CC[C@@H]1[C@@]24OO3 | Active | 9 | Non-toxic | Toxic | Non-toxic | inactive | Toxic | 40 | Active | Non-toxic | Non-toxic | 70 | – | Toxic | –
9 | CCCC(=O)O[C@H]1O[C@@H]2O[C@@]3(C)CC[C@H]4[C@H](C)CC[C@@H]([C@H]1C)[C@@]24OO3 | inactive | 2 | Non-toxic | Non-toxic | Non-toxic | Active | – | 100 | Active | Non-toxic | Non-toxic | 130 | Non-toxic | Toxic | –
10 | CCCC(CCC)C(=O)O[C@H]1O[C@@H]2O[C@@]3(C)CC[C@H]4[C@H](C)CC[C@@H]([C@H]1C)[C@@]24OO3 | Active | 1 | Non-toxic | Toxic | Non-toxic | inactive | Toxic | 3 | inactive | Non-toxic | Non-toxic | 5 | – | Toxic | Activity (SK-HEP1 [16]): Active; Activity (SK-HEP1 [17]): Active; Activity (SK-HEP1 [18]): Active; Activity (SK-HEP1 [19]): Active
11 | CC1=CO[C@@H]2O[C@]3(C)CC[C@H]4[C@H](C)CC[C@@H]1[C@@]24OO3 [ANHYDRODIHYDROARTEMISININ] | Active | 30 | Non-toxic | Non-toxic | – | Active | – | 200 | Dose-dependent effect | – | – | > 200 | Non-toxic | – | Activity (EBTr [21]): Active; Activity (Hepatitis B virus): 50%; Activity (EBTr [22]): Active; Activity [13]: Toxic
